Results taken from patent US20090004232A1, “BIOACTIVE PHARMACEUTICAL/COSMETIC COMPOSITIONS AND MIXED SOLUBILIZATION PROCESS FOR THE FORMULATION THEREOF” (priority 2005, published 2009).

Test: Physical stability of the emulsions on storage (phase shift, recrystallization / crystal growth of the active principle)
Format: physicochemical
Description: According to the invention, another physical stability parameter observed is, in particular, the absence of recrystallization phenomenon at ambient temperature and at 4° C., over three months.
In the present text, the expression “active principle in dissolved form” means a molecular state dispersion in a liquid, no crystallization of the active principle being visible to the naked eye nor even using a crossed polarization optical microscope, or using other more accurate techniques such as electron microscopy. Preferably, the bioactive principle particles have a size below 1 nm.
Preferably, according to the invention, the expression “active principle in dissolved form” means a molecular state dispersion in a liquid for which no crystallization of the active principle is visible to the naked eye or using an optical microscope.

- crystal growth phenomena of the active principle (single phase solubilization, storage at 4° C.): appeared from the first month
SMILES: CC/C(=C\C=C\C(O)(CC)CC)c1cccc(OCc2ccc(CO)c(CO)c2)c1 [(4E,6E)-7-[3-(3,4-bishydroxymethylbenzyloxy)phenyl]-3-ethylnona-4,6-dien-3-ol]
- physical stability of the emulsion over time (active principle solubilized in a single phase (hydrophilic phase or lipophilic phase)): have not made it possible to obtain an emulsion that was physically stable over time
